Data published in patent US20240287138A1, “CYCLIC PEPTIDES FOR INHIBITING TNF RECEPTOR 1 ACTIVITY” (Merck Sharp & Dohme LLC, priority 2023, published 2024).
Numbered stars: 1 amine (or outer) side, 2 acyl side, 3 side chain; on linkers, the order of the positions; unused ones are H or OH. Bridge positions count the residues as written; N and C are the ends. Square brackets hold non-standard residues; d marks the D form. Peptide text beside a SMILES is read from it. * marks the point of attachment. Trp(βS-Me,7-OMe) = COc1cccc2c([C@H](C)[C@H](N)C(=O)O)c[nH]c12; Phe(3R-OH) = O=C([C@@H](N[*:1])[C@H](O[*:3])c1ccccc1)[*:2]; Ala(1-bicyclo(1.1.1)pentyl) = N[C@@H](CC12CC(C1)C2)C(=O)O; Phe(3-CH2NH2) = O=C([C@H](Cc1cccc(CN[*:3])c1)N[*:1])[*:2]; Trp(4-Cl) = N[C@@H](Cc1c[nH]c2cccc(Cl)c12)C(=O)O; Trp(7-Cl) = N[C@@H](Cc1c[nH]c2c(Cl)cccc12)C(=O)O; Phe(4-COOH) = N[C@@H](Cc1ccc(C(=O)O)cc1)C(=O)O; Trp(7-aza) = N[C@@H](Cc1c[nH]c2ncccc12)C(=O)O; Phe(4-CH2NH2) = NCc1ccc(C[C@H](N)C(=O)O)cc1; αMeW = C[C@](N)(Cc1c[nH]c2ccccc12)C(=O)O; d(cisHyp) = O=C(O)[C@H]1C[C@@H](O)CN1; Gly(N(CH2)3COOH) = O=C(O)CCCNCC(=O)O; Pip(4-aza) = O=C(O)[C@@H]1CNCCN1; 4Pal = N[C@@H](Cc1ccncc1)C(=O)O; NMeE = CN[C@@H](CCC(=O)O)C(=O)O; NMeN = CN[C@@H](CC(N)=O)C(=O)O; Pip = O=C(O)[C@@H]1CCCCN1; αMeS = C[C@](N)(CO)C(=O)O; Carboxymethyl = O=C(O)C*; Nle = CCCC[C@H](N)C(=O)O; Sar = CNCC(=O)O

Tests used:
[1] = target: T1, human TNFR1 extracellular domain (ECD) protein (Homo sapiens, UniProt P19438); assay: SPR binding affinity to captured human TNFR1 ECD
T1 construct: HRV 3C protease cleavage site (C); 6His (C, cleaved yes); made in house; host or cells: Sf21 insect cells (baculovirus), secreted
T1 sequence (P19438 30-211): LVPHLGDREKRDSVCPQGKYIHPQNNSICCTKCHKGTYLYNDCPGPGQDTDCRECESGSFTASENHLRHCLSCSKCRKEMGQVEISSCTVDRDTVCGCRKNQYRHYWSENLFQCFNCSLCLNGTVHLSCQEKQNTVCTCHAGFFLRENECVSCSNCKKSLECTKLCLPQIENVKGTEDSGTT
Procedure, shortened: (§1)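 Biotinylated human TNFR1 or TNFR2 ECD (C-terminal Avi-tag, Sf21-expressed) captured on a regenerable streptavidin chip; peptide analytes flowed in 10 mM HEPES pH 7.4, 150 mM NaCl, 3 mM EDTA, 0.05% P20, 2% DMSO. kon and koff measured; affinity calculated from the rate constants.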

human TNFR2 ECD protein = target: T2, human TNFR2 ECD protein (Homo sapiens, UniProt P20333); assay: SPR off-target binding (selectivity) to human TNFR2 ECD
T2 construct: HRV 3C protease cleavage site (C); 6His (C, cleaved yes); made in house; host or cells: Sf21 insect cells (baculovirus), secreted
T2 sequence (P20333 23-257): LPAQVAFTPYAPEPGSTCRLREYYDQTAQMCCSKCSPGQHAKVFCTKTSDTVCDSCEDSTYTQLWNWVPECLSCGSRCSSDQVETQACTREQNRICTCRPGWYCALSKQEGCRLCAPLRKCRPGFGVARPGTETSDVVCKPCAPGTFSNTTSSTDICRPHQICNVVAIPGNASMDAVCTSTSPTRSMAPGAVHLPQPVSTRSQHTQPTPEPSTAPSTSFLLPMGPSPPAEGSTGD
Procedure, shortened: as §1

[2] = target: T3, TNFα-induced NF-κB signal transduction pathway (TNFR1 signaling) in THP-1 cells (Homo sapiens, UniProt P19438); assay: THP-1 Lucia NF-κB reporter cell assay, inhibition of TNFα-induced NF-κB signaling; format: cell-based; settings: THP-1 NF-κB Lucia reporter cells, 10 ng/mL TNFα, 16-18 h, secreted luciferase; read-out: THP-1 IC50
T3 sequence (P19438 30-455): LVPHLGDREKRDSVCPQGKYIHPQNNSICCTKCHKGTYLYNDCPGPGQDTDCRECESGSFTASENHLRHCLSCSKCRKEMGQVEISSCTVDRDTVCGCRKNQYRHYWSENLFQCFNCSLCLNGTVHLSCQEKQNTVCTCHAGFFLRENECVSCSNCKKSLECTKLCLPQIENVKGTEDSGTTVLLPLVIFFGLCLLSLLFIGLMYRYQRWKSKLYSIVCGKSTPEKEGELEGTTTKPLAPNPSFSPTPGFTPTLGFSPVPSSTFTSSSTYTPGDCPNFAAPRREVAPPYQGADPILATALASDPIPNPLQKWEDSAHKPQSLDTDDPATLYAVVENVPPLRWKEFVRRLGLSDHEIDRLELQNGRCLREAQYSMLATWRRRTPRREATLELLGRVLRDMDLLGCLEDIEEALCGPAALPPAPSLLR
Procedure, shortened: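 IC50 from a 4-parameter logistic fit of secreted luciferase luminescence (QUANTI-Luc), normalised to min/max controls. Reporter THP-1 cells were exposed to peptides for 1 h at 37 °C before 10 ng/mL TNFα (final) was added overnight (16–18 h).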

| SMILES | Kd [1] [nM] | Kd (human TNFR2 ECD protein) [nM] | IC50 [2] [nM] |
| --- | --- | --- | --- |
| CCCC[C@@H]1NC(=O)CSC[C@@H](C(N)=O)NC(=O)[C@](C)(Cc2c[nH]c3ccccc23)NC(=O)CN(C)C(=O)[C@H](Cc2ccc(O)cc2)NC(=O)[C@H](Cc2ccc(OCC(=O)O)cc2)NC(=O)[C@](C)(CO)NC(=O)[C@H](Cc2c[nH]c3c(Cl)cccc23)NC(=O)[C@H](Cc2ccncc2)NC(=O)[C@H](CC(N)=O)NC(=O)[C@H](CCC(=O)O)N(C)C(=O)[C@H](Cc2c[nH]c3ncccc23)NC(=O)[C@H](CO)NC(=O)[C@H](Cc2ccc(CN)cc2)NC1=O [SEQ ID NO. 283] ({CH2CO}-[Nle][Phe(4-CH2NH2)]S[Trp(7-aza)][NMeE]N[4Pal][Trp(7-Cl)][αMeS]Y(Carboxymethyl)Y[Sar][αMeW]C-NH2; thioether N-14) | 0.5 | > 1000 | 6.4 |
| CN1CC(=O)N[C@@H](Cc2c[nH]c3cccc(Cl)c23)C(=O)N[C@H](C(N)=O)CSCC(=O)N[C@@H](CC23CC(C2)C3)C(=O)N[C@@H](Cc2cccc(CN)c2)C(=O)N[C@@H](CO)C(=O)N[C@@H](Cc2c[nH]c3c(Cl)cccc23)C(=O)N2CCC[C@@H]2C(=O)N(C)[C@@H](CC(N)=O)C(=O)N[C@@H](Cc2ccc(C(=O)O)cc2)C(=O)N[C@@H](Cc2c[nH]c3c(Cl)cccc23)C(=O)N[C@@](C)(CO)C(=O)N[C@@H](Cc2ccc(C(=O)O)cc2)C(=O)N[C@@H](Cc2cccc(CN)c2)C1=O [SEQ ID NO. 222] ({CH2CO}-[Ala(1-bicyclo(1.1.1)pentyl)][Phe(3-CH2NH2)]S[Trp(7-Cl)][dP][NMeN][Phe(4-COOH)][Trp(7-Cl)][αMeS][Phe(4-COOH)][Phe(3-CH2NH2)][Sar][Trp(4-Cl)]C-NH2; thioether N-14) | 0.18 | > 1000 | 5.7 |
| CCCC[C@@H]1NC(=O)CSC[C@@H](C(N)=O)NC(=O)[C@H]([C@@H](C)c2c[nH]c3c(OC)cccc23)NC(=O)CN(C)C(=O)[C@H](Cc2ccc(O)cc2)NC(=O)[C@H](Cc2ccc(C(=O)O)cc2)NC(=O)[C@](C)(CO)NC(=O)[C@H](Cc2c[nH]c3c(Cl)cccc23)NC(=O)[C@H](Cc2ccncc2)NC(=O)[C@H](CC(N)=O)NC(=O)[C@H]2C[C@@H](O)CN2C(=O)[C@H](Cc2c[nH]c3ncccc23)NC(=O)[C@@H]2CNCCN2C(=O)[C@H](Cc2ccncc2)NC1=O [SEQ ID NO. 261] ({CH2CO}-[Nle][4Pal][Pip(4-aza)][Trp(7-aza)][d(cisHyp)]N[4Pal][Trp(7-Cl)][αMeS][Phe(4-COOH)]Y[Sar][Trp(βS-Me,7-OMe)]C-NH2; thioether N-14) | 0.2 | > 1000 | 2.7 |
| CCCC[C@@H]1NC(=O)CSC[C@@H](C(N)=O)NC(=O)[C@H]([C@@H](C)c2c[nH]c3c(OC)cccc23)NC(=O)CN(C)C(=O)[C@H](Cc2ccc(O)cc2)NC(=O)[C@H](Cc2ccc(C(=O)O)cc2)NC(=O)[C@](C)(CO)NC(=O)[C@H](Cc2c[nH]c3c(Cl)cccc23)NC(=O)[C@H](Cc2ccncc2)NC(=O)[C@H](CC(N)=O)NC(=O)CN(CCCC(=O)O)C(=O)[C@H](Cc2c[nH]c3ncccc23)NC(=O)[C@@H]2CCCCN2C(=O)[C@H](Cc2ccncc2)NC1=O [SEQ ID NO. 157] ({CH2CO}-[Nle][4Pal][Pip][Trp(7-aza)][Gly(N(CH2)3COOH)]N[4Pal][Trp(7-Cl)][αMeS][Phe(4-COOH)]Y[Sar][Trp(βS-Me,7-OMe)]C-NH2; thioether N-14) | 0.5 | > 1000 | 4 |
| CCCC[C@@H]1NC(=O)CSC[C@@H](C(N)=O)NC(=O)[C@H]([C@@H](C)c2c[nH]c3c(OC)cccc23)NC(=O)CN(C)C(=O)[C@H](Cc2ccc(O)cc2)NC(=O)[C@H](Cc2ccc(C(=O)O)cc2)NC(=O)[C@](C)(CO)NC(=O)[C@H](Cc2c[nH]c3c(Cl)cccc23)NC(=O)[C@H](Cc2ccncc2)NC(=O)[C@H](CC(N)=O)NC(=O)[C@H](CCC(=O)O)N(C)C(=O)[C@H](Cc2c[nH]c3ncccc23)NC(=O)[C@H](CO)NC(=O)[C@H]([C@H](O)c2ccccc2)NC1=O [SEQ ID NO. 259] ({CH2CO}-[Nle][Phe(3R-OH)]S[Trp(7-aza)][NMeE]N[4Pal][Trp(7-Cl)][αMeS][Phe(4-COOH)]Y[Sar][Trp(βS-Me,7-OMe)]C-NH2; thioether N-14) | 0.15 | > 1000 | 1.9 |
